From patent US8663690B2, “Method for nanoencapsulation” (William Marsh Rice University, priority 2006, dated 2014)

Assay: UV-vis spectroscopy estimate of lutein-ester dissolved in ethanol
Format: physicochemical
Conditions: ethanol at 60° C., estimated from UV-vis spectroscopy; rest undissolved particles
Description: A suspension of lutein-ester (Blue California, Co.) was prepared by dissolving lutein-ester powder in ethanol at 60° C. under stirring. It is estimated from UV-vis spectroscopy that 20.0 wt % lutein-ester dissolves in ethanol at 60° C., and the rest are in the form of undissolved nanoparticles, mesoparticles, and microparticles. A solution of gum arabic (Sigma) was prepared by dissolving gum arabic in deionized water (18.2 Mega-Ohm·cm) at 60° C. under stirring until the gum arabic was completely dissolved and a clear solution was obtained.

Substance: lutein-ester
- fraction of lutein-ester that dissolves in ethanol: 20.0 wt %
